The text below walks through data of article PMC5943252, “Contrasting roles for actin in the cellular uptake of cell penetrating peptide conjugates” (Scientific Reports, 2018).

Entries after “also recorded” stand apart in the source; their conditions may differ.

The test system of test [1] is A431 cells. Kind of test: Flow cytometry of cellular uptake of EGFP-R8 in the presence of actin inhibitors. Format: cell-based. The following applies: for Normalised Fluoresence Intensity (EGFP-R8): three independent experiments. The procedure:
(§1) A431 cells were seeded onto 12-well plates and cultured for 24 hr to be ~80% confluent on the day of experiment. Cells were washed twice with PBS and then incubated with diluent control (DMSO/dH2O) or actin inhibitors as previously described. They were then loaded with serum-free DMEM containing either 2 µM EGFP-R8, 5 µg/ml TF-647 or 0.1 mg/ml Dex-647 in the presence or absence of actin inhibitors for times stipulated in the figure legends. The plates were then placed on ice to prevent further uptake and washed 3x with either ice-cold PBS or 0.5 mg/ml heparin in PBS. To remove the plasma membrane bound TF, cells were washed 3x with ice-cold PBS followed by an incubation for 1 min in ice-cold acid wash (0.2 M acetic acid, 0.2 M NaCl, pH 2.0)[33]. All cells were then washed twice with PBS at room temperature before trypsinisation at 37 °C for 5 min before placing the detached cells in centrifuge tubes and centrifuging at 4 °C for 3 min at 800 × g. The obtained cell suspension was washed 3x with ice-cold PBS and finally resuspended in 300 µl ice-cold PBS for measurement of cell-associated fluorescence (cell gate 50,000 cells) by flow cytometry on a BD FACSVerse utilising a 488 laser and 527/32 filter for EGFP analysis and a 633 nm laser and 660/10 filter for Alexa 647. Cells were gated using FSC-A/SSC-A to isolate single cell populations and analysed using FlowJo.
Flow cytometry measurements represent the mean fluorescence from three independent experiments performed in duplicate, where each individual data point was the geometric mean. A two-tailed unpaired Students t-test was used to test for differences within experiments. Significant differences were classed as having a P value of < 0.05.
Background: Flow cytometry measures light scatter and fluorescence of single cells or particles in a stream.

A further test has as its system macrophages. The following applies: cited from earlier work. The text has this:
Through interaction with the Rho GTPase, ROCKs play a central role in actin network assembly and membrane association. In A431 cells the effects of Y27632 on the actin cytoskeleton was more subtle than that observed with the agents that directly targeted actin. […] In contrast to results o ...

In test [2] the test system is actin architecture in A431 cells. Kind of test: Actin cytoskeleton visualisation (Rh-P staining, confocal microscopy). As to conditions: for effect on organisation of the actin cytoskeleton: A431 cells, 4 hr, Rh-P staining. The class given is cell-based. The procedure: Analysis was performed on a Leica SP5 confocal laser scanning microscope, equipped with laser lines: 405 Blue Diode (Excitation wavelength 405 nm for Hoechst 33342) Argon (Excitation wavelength 488 nm for Alexa 488 or EGFP), Helium Neon Laser 1 (Excitation wavelength 543 nm for Tetramethyl-Rhodamine Phalloidin (Rh-P)) and Laser 2 (Excitation wavelength 633 nm for Alexa 647 conjugates). All images presented in this study were obtained using a HCX PL APO 63x 1.4 NA oil immersion objective with Leica Type F immersion oil. Parameters “Gain” and “Off-set” of the individual photomultiplier tubes were adjusted between experiments in order to obtain optimal image acquisition avoiding saturation. For multi-channel image acquisition, the channels were scanned in a sequential recording mode to avoid spectral cross-talk caused by overlapping excitation and/or emission spectra of fluorophores. Acquisition mode “XYZ” and image resolutions (pixels/image) of 512 × 512 or 1024 × 1024 were selected and pinhole size was set to 1 Airy Unit. Depending on acquisition requirements the scan speed was set as either 400 or 700 Hz and for single section images, the same optical section was scanned 3x to generate a line average image. Captured images were then analysed using ImageJ. In some cases (live cell imaging) the same cells were also imaged using […] microscopy (DIC).
A recently described method was utilised giving information on actin architecture at different regions of the cells termed basal and cell body and apex (CBA). For actin staining, HeLa (0.5 × 10^6 cells/well) or A431 (1.0 × 10^6 cells/well) cells in 2.5 mL D-MEM containing 10% FBS were seeded on round borosilicate No.1.5 cover slips in 6 –well plates and allowed to adhere for 24 hr at 37 °C/5% CO2, to reach a confluence of ~80%. The cells were then treated with actin disrupters as described above, washed 3x with PBS and fixed for 15 min at room temperature with 3% PFA in PBS. Cells were then washed 3x with PBS and permeabilised with 0.2% Triton X-100 in PBS at room temperature for 5 min, washed 3x with PBS and stained for cell nuclei with 1.0 µg/ml Hoechst 33342 in PBS and for polymerised actin with 1.0 µg/ml Rh-P in PBS for 15 min at room temperature. The cells were finally washed 3x with PBS and once with distilled water, coverslips were mounted in DAKO mounting medium on glass microscope slides and imaged by confocal microscopy.

For test [3], the system named is A431 cells. Kind of test: Flow cytometry of transferrin-Alexa647 uptake with acid wash. Format: cell-based. The following applies: 10 µM Cyt D, 15 min preincubation, then 5 µg/ml TF-647 for 30 min with Cyt D, acid washing of surface label, three separate experiments. Here is the method: as §1, with “All cells were then washed twice with PBS at room temperature before trypsinisation at 37 °C for 5 min before placing the detached cells in centrifuge tubes and centrifuging at 4 °C for 3 min at 800 × g.” left out
Flow cytometry measurements represent the mean fluorescence from three independent experiments performed in duplicate, where each individual data point was the geometric mean. […]

Test [4] relates to A431 cells. Briefly: Live cell confocal microscopy of uptake of endocytic probes and R8 conjugates, with or without actin inhibitors. Format: cell-based. The following applies: 10 µM Cyt D, 15 min preincubation. The procedure:
(§2) HeLa or A431 cells were seeded on 35 mm MatTek dishes (Ashland, US) at respective densities of 5 × 10^5 cells/dish and 1.0 × 10^6 cells/dish and maintained in 2.5 mL D-MEM containing 10%, 100 IU/mL penicillin and 100 µg/mL streptomycin. Cells were then allowed to adhere for 24 hr at 37 °C/5% CO2 to reach a confluence of ~80%. On the day of experimentation, they were washed with PBS and then incubated with 100 µl serum-free D-MEM (thus reducing well described serum binding effects[32]) containing either 2 µM CPP conjugate (R8-Alexa488 or EGFP-R8), 5 µg/ml transferrin-Alexa 647 (TF-647) or 0.1 mg/ml dextran (10 kDa)-Alexa 647 (Dex-647). The cells were then incubated for 1 hr (or 30 min for TF-647) at 37 °C/5% CO2 before washing 3x with PBS (TF-647 or Dex-647) or PBS 0.5 mg/mL heparin (R8-conjugates). They were then washed once with PBS, prior to the addition of 2 mL of imaging medium (phenol red free RPMI, 20 mM HEPES pH 7.4) and analysis by live cell confocal microscopy.
Cells were seeded on MatTek dishes as previously described and were washed with PBS before preincubation at 37 °C with diluent control (DMSO) or actin inhibitors: 10 µM Cyt D for 15 min; 0.1–1 µM Lat B for 30 min; 0.2–4 µM JAS for 45 min; 50–100 µM Y27632 for 4 hr in serum-free D-MEM at 37 °C/5% CO2. Endocytic probes (TF-647, Dex-647) or R8-conjugates were then incubated with the cells in the absence (control) or presence of the inhibitors and further incubated at 37 °C/5% CO2 for times specified in figure legends prior to analysis by confocal microscopy. For pulse chase experiments, A431 cells were incubated with 0.1 mg/ml Dex-647 for 2 hr (pulse) followed by washing and a further 4 hr (chase) in fresh complete growth medium. EGFP-R8 (2 µM) was then added for 1 hr in the absence or presence of 10 µM Cyt D. EGFP-R8 and Dex-647 subcellular distribution was then analysed in live cells using confocal microscopy. For low temperature experiments, cells were preincubated with Cyt D as above and then placed on ice for 2 min prior to addition of ice cold EGFP-R8. The cells were then maintained under these conditions for 1 hr prior to analysis by confocal microscopy.
Analysis was performed on a Leica SP5 confocal laser scanning microscope, equipped with laser lines: 405 Blue Diode (Excitation wavelength 405 nm for Hoechst 33342) Argon (Excitation wavelength 488 nm for Alexa 488 or EGFP), Helium Neon Laser 1 (Excitation wavelength 543 nm for Tetramethyl-Rhodamine Phalloidin (Rh-P)) and Laser 2 (Excitation wavelength 633 nm for Alexa 647 conjugates). All images presented in this study were obtained using a HCX PL APO 63x 1.4 NA oil immersion objective with Leica Type F immersion oil. Parameters “Gain” and “Off-set” of the individual photomultiplier tubes were adjusted between experiments in order to obtain optimal image acquisition avoiding saturation. For multi-channel image acquisition, the channels were scanned in a sequential recording mode to avoid spectral cross-talk caused by overlapping excitation and/or emission spectra of fluorophores. Acquisition mode “XYZ” and image resolutions (pixels/image) of 512 × 512 or 1024 × 1024 were selected and pinhole size was set to 1 Airy Unit. Depending on acquisition requirements the scan speed was set as either 400 or 700 Hz and for single section images, the same optical section was scanned 3x to generate a line average image. Captured images were then analysed using ImageJ. […]

Another test concerns HeLa cells. Kind of test: Live cell confocal microscopy of uptake of endocytic probes and R8 conjugates, with or without Cyt D. Format: cell-based. As to conditions: 10 µM Cyt D, 15 min preincubation. Here is the method:
as §2, with “They were then washed once with PBS, prior to the addition of 2 mL of imaging medium (phenol red free RPMI, 20 mM HEPES pH 7.4) and analysis by live cell confocal microscopy.” left out
Cells were seeded on MatTek dishes as previously described and were washed with PBS before preincubation at 37 °C with diluent control (DMSO) or actin inhibitors: 10 µM Cyt D for 15 min; 0.1–1 µM Lat B for 30 min; 0.2–4 µM JAS for 45 min; 50–100 µM Y27632 for 4 hr in serum-free D-MEM at 37 °C/5% CO2. […] EGFP-R8 (2 µM) was then added for 1 hr in the absence or presence of 10 µM Cyt D. EGFP-R8 and Dex-647 subcellular distribution was then analysed in live cells using confocal microscopy. […]

The test system of the next test is HeLa. The following applies: cited from earlier work. The text has this: (§3) Cyt D binds to the fast-growing ends of actin nuclei and filaments, preventing addition of monomeric actin to these sites. […] Here we further explored these contradictory effects by also performing uptake studies with recomb ...
The subject of a further test is A431. As to conditions: cited from earlier work.
Text: as §3

`C[C@@H](N)[C@H]1CC[C@H](C(=O)Nc2ccncc2)CC1.Cl.Cl` (relative stereo) [Y27632, (+)-(R)-trans-4-(1-aminoethyl)-N-(4-pyridyl) cyclohexanecarboxamide dihydrochloride]: the “inhibition of cell uptake of EGFP-R8” value in the test with A431 cells [1] (100 µM Y27632, 4 hr preincubation, then 2 µM EGFP-R8 for 1 hr with Y27632, P = 0.02) is on record as ~ 20%. Besides, in the test on A431 cells [1] (100 µM Y27632, 4 hr preincubation, then 2 µM EGFP-R8 for 1 hr with Y27632, mean of geometric means), the “Normalised Fluoresence Intensity (EGFP-R8)” value was 0.77. In addition, in the test with macrophages, the “inhibition of uptake of 70 KDa dextran” value is given as ~ 50%. Also, the “effect on organisation of the actin cytoskeleton” value is listed as “no visible changes in the organisation of the actin cytoskeleton” in test [2] (Y27632 1 and 10 μM (up to 10 μM)); “extensive actin deformities” in test [2] (Y27632 at higher concentrations (50, 100 μM)).
As for `C=C1[C@@H](C)[C@H]2[C@H](Cc3ccccc3)NC(=O)[C@]23[C@H](OC(C)=O)/C=C/[C@@](C)(O)C(=O)[C@@H](C)C/C=C/[C@H]3[C@@H]1O` [Cyt D, cytochalasin D], the “effect on fluorescence uptake of transferrin” value with A431 cells [3] is “no difference in fluorescence uptake”. In addition, the “effect on internalisation of EGFP-R8” value in the test with A431 cells [4] (then 2 µM EGFP-R8 for 1 hr with Cyt D, heparin wash) is recorded as “dramatically enhanced”. The “effect on uptake of R8-Alexa488” value in the test with A431 cells [4] (then 2 µM R8-Alexa488 for 1 hr with Cyt D, heparin wash) is “less of a noticeable reduction in uptake; also recorded: inhibition”. Moreover, the “effect on uptake of dextran-Alexa647” value in the test with A431 cells [4] (then 0.1 mg/ml 10 kDa Dex-647 for 1 hr with Cyt D) was “dramatically increased”. In addition, the “effect on internalisation of R8-Alexa 488” value in the test with HeLa cells (then 2 µM R8-Alexa 488 for 1 hr with Cyt D, heparin wash) is “inhibited; also recorded: reduction in uptake”. For the same compound, in the test on HeLa cells (then 5 µg/ml TF-647 for 30 min with Cyt D, vs control), the “effect on cell associated transferrin fluorescence” value is “not markedly different”. For the same compound, the “Normalised Fluoresence Intensity (EGFP-R8)” value in the test on A431 cells [1] (10 µM Cyt D, 15 min preincubation, then 2 µM EGFP-R8 for 1 hr with Cyt D, geometric means, normalised to diluent control) is recorded as 4.55. In addition, in the test on A431 cells [1] (10 µM Cyt D, 15 min preincubation, then 2 µM EGFP-R8 for 1 hr with Cyt D, serum-free D-MEM, 37 °C, washed, trypsinised, vs diluent control, P = 0.0036, three independent experiments), the “fold increase in intracellular fluorescence (EGFP-R8 uptake)” value is listed as 4.5 fold. For the same compound, the “effect on actin organisation” value in test [2] (Cyt D at concentrations >5 µM) is listed as “completely destroys actin organisation”. Besides, the “effect on uptake of dextran” value is “no effect” in the test with HeLa (HeLa cells) and “increased uptake” in the test on A431 (A431 cells). The “effect on uptake of Alexa488-CPPs R8 and Tat” value in the test with HeLa (HeLa, flow cytometry) was “inhibited”; in the test with A431 (A431, flow cytometry) it was “inhibited”.
